# Like-named read-outs stand apart in the source and are kept apart here.
# Tests used:
# [1] = system: SARS-CoV-2-NLuc; test: microbe, parasite or virus in culture; type: cell-based, SARS Coronavirus 2
# [2] = target: recombinant SARS-CoV-2 Main protease (Mpro) (Severe acute respiratory syndrome coronavirus 2 (2019-nCoV) (SARS-CoV-2), UniProt P0DTD1); test: Cov Mpro Biochemical IC50 Assay; conditions: read-out: MPro IC50
# [3] = Severe acute respiratory syndrome coronavirus, 48 h; read-out: MPro EC50
# [4] = recombinant SARS-CoV-2 Mpro 7.5 nM, fluorogenic peptide substrate 40 μM
# [5] = Severe acute respiratory syndrome coronavirus, 48 h, read-out: MPro EC50
# [6] = recombinant SARS-CoV-2 Mpro, fluorogenic peptide substrate
Compound,"EC50 [1, 3]","IC50 [2, 4]","EC50 [1, 5]","IC50 [2, 6]",EC50 ([1]; read-out: MPro EC50)
N#CCCn1c(=O)n(-c2cncc(C(F)F)c2)c(=O)c2sc(-c3ccccc3C#N)cc21 [Example 888],0.0915 µM,0.0258 µM,–,–,–
Cc1nc2cc(-c3cccc(Cl)c3-c3ccc4c(=O)n(-c5cncc6ccccc56)c(=O)[nH]c4c3)ccc2o1 [Example 359],–,–,0.0914 µM,0.107 µM,–
COc1ccc(-n2cc(-c3cccc(Cl)c3-c3ccc4c(=O)n(-c5cncc6ccccc56)c(=O)[nH]c4c3)c(C)n2)cc1 [Example 283],–,–,0.0944 µM,0.24 µM,–
CC1(C)Cc2c(-c3cccc(Cl)c3-c3ccc4c(=O)n(-c5cncc6ccccc56)c(=O)[nH]c4c3)cnn2C1 [Example 190],–,–,0.0164 µM,0.0197 µM,–
Cc1cncc(-n2c(=O)[nH]c3cc(-c4ccccc4Cl)sc3c2=O)c1C [Example 132],–,–,0.0274 µM,0.00912 µM,–
"COc1cc(-c2cc3c(s2)c(=O)n(-c2cncc4ccncc24)c(=O)n3CCC#N)c(Cl)cc1F (single isomer, unassigned) [Example 1097, 3-[6-(2-chloro-4-fluoro-5-methoxy-phenyl)-3-(2,6-naphthyridin-4-yl)-2,4-dioxo-thieno[3,2-d]pyrimidin-1-yl]propanenitrile]",–,0.0425 µM,–,–,0.0332 µM
O=c1[nH]c2cc(-c3ccc(F)cc3Cl)sc2c(=O)n1-c1cncc2ccccc12 [Example 13],–,–,0.0424 µM,0.0171 µM,–
COc1cc(-c2cc3c(s2)c(=O)n(-c2cncc(C(F)(F)F)c2)c(=O)n3CCC#N)c(Cl)cc1F [Example 869],–,0.0239 µM,0.0731 µM,–,–
"COc1cc(-c2cc3c(s2)c(=O)n(-c2cncc4nnn(C)c24)c(=O)n3CCC#N)c(Cl)cc1F (single isomer, unassigned) [Example 1058, 3-(6-(2-chloro-4-fluoro-5-methoxyphenyl)-3-(1-methyl-1H-[1,2,3]triazolo[4,5-c]pyridin-7-yl)-2,4-dioxo-3,4-dihydrothieno[3,2-d]pyrimidin-1(2H)-yl)propanenitrile]",–,0.00286 µM,–,–,0.00515 µM
N#CCCn1c(=O)n(-c2cncc3cccnc23)c(=O)c2sc(-c3ccccc3Cl)cc21 [Example 905],–,0.00593 µM,0.00417 µM,–,–
O=c1[nH]c2cc(-c3cccc4ccccc34)ccc2c(=O)n1-c1cncc2ccccc12 [Example 26],–,–,47.9 µM,40.1 µM,–
COc1ccc(C#N)c(-c2cc3[nH]c(=O)n(-c4cncc5cnn(C)c45)c(=O)c3s2)c1 [Example 506],–,0.0196 µM,0.0995 µM,–,–
"COc1cc(-c2cc3c(s2)c(=O)n(-c2cncc4ccccc24)c(=O)n3CCC#N)c(C#N)cc1F (single isomer, unassigned) [Example 967, 2-(1-(2-cyanoethyl)-3-(isoquinolin-4-yl)-2,4-dioxo-1,2,3,4-tetrahydrothieno[3,2-d]pyrimidin-6-yl)-5-fluoro-4-methoxybenzonitrile]",–,0.00182 µM,–,–,0.00183 µM
"O=c1[nH]c2cc(-c3c(Cl)cccc3-c3nc4ccccc4[nH]3)ccc2c(=O)n1-c1cncc2ccccc12 [Example 161, 7-[2-(1H-benzimidazol-2-yl)-6-chloro-phenyl]-3-(4-isoquinolyl)-1H-quinazoline-2,4-dione]",–,–,0.129 µM,0.0271 µM,–
Cn1cnc2cncc(-n3c(=O)c4sc(-c5cc(F)c(F)cc5Cl)cc4n(CCC#N)c3=O)c21 [Example 852],0.104 µM,0.0274 µM,–,–,–
COc1ccc(Cl)c(-c2cc3[nH]c(=O)n(-c4cncc5c4cnn5C)c(=O)c3s2)c1 [Example 497],0.0192 µM,0.00624 µM,–,–,–
Cn1ncc2cncc(-n3c(=O)c4sc(-c5cc(C(F)(F)F)ccc5C#N)cc4n(CCC#N)c3=O)c21 [Example 822],0.346 µM,0.0964 µM,–,–,–
"O=c1[nH]c2cc(-c3ccccc3Cl)sc2c(=O)n1-c1cncc2cccnc12 (single isomer, unassigned) [Example 463, 6-(2-chlorophenyl)-3-(1,6-naphthyridin-8-yl)thieno[3,2-d]pyrimidine-2,4(1H,3H)-dione]",–,0.202 µM,–,–,0.464 µM
COc1cc(-c2cc3c(s2)c(=O)n(-c2cncc4nccn24)c(=O)n3CCC#N)c(Cl)cc1F [Example 1000],–,0.0106 µM,0.0201 µM,–,–
"COc1cc(-c2cc3[nH]c(=O)n(-c4cncc5ccccc45)c(=O)c3cc2F)c(C#N)cc1F (single isomer, unassigned) [Example 510, 5-fluoro-2-[6-fluoro-3-(4-isoquinolyl)-2,4-dioxo-1H-quinazolin-7-yl]-4-methoxy-benzonitrile]",–,0.00705 µM,–,–,0.0162 µM

Compound,"EC50 [1, 3]","IC50 [2, 4]","EC50 [1, 5]","IC50 [2, 6]",EC50 ([1]; read-out: MPro EC50)
COc1cc(-c2cc(OC)c3c(=O)n(-c4cncc5ccccc45)c(=O)[nH]c3c2)c(C#N)cc1F [Example 679],–,0.0254 µM,0.0801 µM,–,–
O=c1[nH]c2cc(-c3cc4c(cc3Cl)OCO4)sc2c(=O)n1-c1cncc2ccccc12 [Example 347],–,–,0.642 µM,0.441 µM,–
COc1ccc(Cl)c(-c2cc3[nH]c(=O)n(-c4cncc5ccc(N6CCS(=O)(=O)CC6)cc45)c(=O)c3s2)c1 [Example 226],–,–,0.0237 µM,0.00374 µM,–
Cn1ncc2cncc(-n3c(=O)[nH]c4cc(-c5c(Cl)cc(Cl)c6c5CCO6)sc4c3=O)c21 [Example 656],0.0239 µM,0.012 µM,–,–,–
Cc1cc(Cl)c(-c2cc3c(s2)c(=O)n(-c2cncc4cnn(C)c24)c(=O)n3CCC#N)cc1Cl [Example 1024],–,0.0097 µM,0.0354 µM,–,–
COc1cc(-c2cc3c(s2)c(=O)n(-c2cccnc2)c(=O)n3CCC#N)c(Cl)cc1F [Example 982],–,0.00412 µM,0.00789 µM,–,–
COc1cc(-c2cc3c(s2)c(=O)n(-c2cncc(Cl)c2)c(=O)n3CCC#N)c(C#N)cc1F [Example 866],–,0.00561 µM,0.0129 µM,–,–
O=c1[nH]c2cc(-c3ccccc3Cl)sc2c(=O)n1-c1cncc2c1CCCO2 [Example 596],–,0.0382 µM,0.108 µM,–,–
"Cn1cnc(Cn2c(=O)n(-c3cncc4ccccc34)c(=O)c3sc(-c4ccccc4Cl)cc32)n1 (single isomer, unassigned) [Example 478, 6-(2-chlorophenyl)-3-(4-isoquinolyl)-1-[(1-methyl-1,2,4-triazol-3-yl)methyl]thieno[3,2-d]pyrimidine-2,4-dione]",–,4.29 µM,–,–,8.28 µM
COc1cc(C#N)c(-c2cc3[nH]c(=O)n(-c4cncc5ccccc45)c(=O)c3s2)cc1OC [Example 544],–,0.0168 µM,0.202 µM,–,–
O=c1[nH]c2cc(-c3ccccc3Cl)sc2c(=O)n1-c1cncc(C2CC2)c1 [Example 137],–,–,0.0401 µM,0.015 µM,–
"COc1cc(-c2cc3c(s2)c(=O)n(-c2cncc4[nH]nc(C)c24)c(=O)n3CCC#N)c(Cl)cc1F (single isomer, unassigned) [Example 959, 3-(6-(2-chloro-4-fluoro-5-methoxyphenyl)-3-(3-methyl-1H-pyrazolo[3,4-c]pyridin-4-yl)-2,4-dioxo-3,4-dihydrothieno[3,2-d]pyrimidin-1(2H)-yl)propanenitrile]",–,0.00511 µM,–,–,0.00586 µM
O=c1[nH]c2cc(-c3ccccc3Cl)sc2c(=O)n1-c1cncc2cn(CC(F)(F)F)nc12 [Example 494],–,0.036 µM,0.118 µM,–,–
N#CCCn1c(=O)n(-c2cncc(C(F)(F)F)c2)c(=O)c2sc(-c3ccccc3C#N)cc21 [Example 890],0.247 µM,0.075 µM,–,–,–
O=c1[nH]c2cc(-c3cccnc3)ccc2c(=O)n1-c1cncc2ccccc12 [Example 43],–,–,> 50 µM,3.12 µM,–
N#CCCn1c(=O)n(-c2cncc(Cl)c2)c(=O)c2sc(-c3ccccc3C#N)cc21 [Example 863],0.0376 µM,0.0133 µM,–,–,–
O=c1[nH]c2cc(-c3c(Cl)cccc3-c3cncc(C(F)(F)F)c3)ccc2c(=O)n1-c1cncc2ccccc12 [Example 206],–,–,0.0206 µM,0.0424 µM,–
N#CCCn1c(=O)n(-c2cncc3ccc(C#N)cc23)c(=O)c2sc(-c3ccc(F)cc3Cl)cc21 [Example 1063],–,0.0179 µM,0.0399 µM,–,–
O=c1[nH]c2cc(-c3ccccc3Cl)ccc2c(=O)n1-c1cccnc1 [Example 122],–,–,3.91 µM,1.01 µM,–
"COc1cc(-c2cc3c(s2)c(=O)n(-c2cncc4nnn(C)c24)c(=O)n3CCC#N)c(Cl)cc1F [Example 936, 3-(6-(2-chloro-4-fluoro-5-methoxyphenyl)-3-(1-methyl-1H-[1,2,3]triazolo[4,5-c]pyridin-7-yl)-2,4-dioxo-3,4-dihydrothieno[3,2-d]pyrimidin-1(2H)-yl)propanenitrile]",–,0.00546 µM,0.00665 µM,–,–

# Source: patent publication US20240116946A1 (Gilead Sciences, Inc., priority 2022, published 2024)
